Tests used:
Haemonchus contortus L3 = assay: microbe, parasite or virus in culture; assay type: cell-based; conditions: Haemonchus contortus, 96 h, read-out: HcL3 Minimal Effective Concentration (MEC)
D. immitis microfilariae = assay: Dirofilaria immitis, microfilariae (DiMF) in vitro motility assay; assay type: cell-based; conditions: Dirofilaria immitis, 72 h, read-out: DiMF minimally effective dose (MEC)

O=C(NCc1cnc(Cl)s1)n1c2c(c3cc(Cl)c(Cl)cc31)CN(C/C=C/c1ccc(Cl)cc1)CC2 [Example 294, (E)-7,8-dichloro-2-(3-(4-chlorophenyl)allyl)-N-((2-chlorothiazol-5-yl)methyl)-1,2,3,4-tetrahydro-5H-pyrido[4,3-b]indole-5-carboxamide]
minimal effective concentration (Haemonchus contortus L3): > 100 µM
minimal effective concentration (D. immitis microfilariae): 10 µM

N#Cc1ccc2c(c1)c1c(n2C(=O)NCc2ccnc(F)c2)CCN(C/C=C/c2ccc(Br)c(F)c2)C1 [Example 105, (E)-2-(3-(4-bromo-3-fluorophenyl)allyl)-8-cyano-N-((2-fluoropyridin-4-yl)methyl)-1,2,3,4-tetrahydro-5H-pyrido[4,3-b]indole-5-carboxamide]
minimal effective concentration (Haemonchus contortus L3): 0.3 µM
minimal effective concentration (D. immitis microfilariae): > 100 µM

O=C(NCc1ccnc(Cl)c1)n1c2c(c3cc(Cl)ccc31)CN(C/C=C/c1ccc(F)cc1)CC2 [Example 244, (E)-8-chloro-N-((2-chloropyridin-4-yl)methyl)-2-(3-(4-fluorophenyl)allyl)-1,2,3,4-tetrahydro-5H-pyrido[4,3-b]indole-5-carboxamide]
minimal effective concentration (Haemonchus contortus L3): 0.7 µM
minimal effective concentration (D. immitis microfilariae): 10 µM

O=C(NCc1ccnc(F)c1)n1c2c(c3ccc(OC(F)(F)F)cc31)CN(C/C=C/c1ccc(Cl)cc1Cl)CC2 [Example 370, (E)-2-(3-(2,4-dichlorophenyl)allyl)-N-((2-fluoropyridin-4-yl)methyl)-7-(trifluoromethoxy)-1,2,3,4-tetrahydro-5H-pyrido[4,3-b]indole-5-carboxamide]
minimal effective concentration (Haemonchus contortus L3): 3.3 µM
minimal effective concentration (D. immitis microfilariae): 33 µM

O=C(NCc1ccnc(Cl)c1)n1c2c(c3cc4c(cc31)COC4)CN(C/C=C/c1ccc(Cl)cc1)CC2 [Example 480, (E)-8-(3-(4-chlorophenyl)allyl)-N-((2-chloropyridin-4-yl)methyl)-1,3,6,7,8,9-hexahydro-5H-furo[3,4-f]pyrido[4,3-b]indole-5-carboxamide]
minimal effective concentration (Haemonchus contortus L3): 0.3 µM
minimal effective concentration (D. immitis microfilariae): 3.3 µM

O=C(NCc1ccnc(Cl)c1)n1c2c(c3ccc(C(F)(F)F)cc31)CN(C/C=C/c1ccc(C(F)(F)F)cc1)CC2 [Example 425, (E)-N-((2-chloropyridin-4-yl)methyl)-7-(trifluoromethyl)-2-(3-(4-(trifluoro-methyl)phenyl)allyl)-1,2,3,4-tetrahydro-5H-pyrido[4,3-b]indole-5-carboxamide]
minimal effective concentration (Haemonchus contortus L3): > 100 µM
minimal effective concentration (D. immitis microfilariae): 15.8 µM

N#Cc1ccc(/C=C/CN2CCc3c(c4ccc(OC(F)(F)F)cc4n3C(=O)NCc3ccnc(F)c3)C2)cc1F [Example 372, (E)-2-(3-(4-cyano-3-fluorophenyl)allyl)-N-((2-fluoropyridin-4-yl)methyl)-7-(trifluoromethoxy)-1,2,3,4-tetrahydro-5H-pyrido[4,3-b]indole-5-carboxamide]
minimal effective concentration (Haemonchus contortus L3): 0.5 µM
minimal effective concentration (D. immitis microfilariae): 5.7 µM

O=C(NCc1ccnc(Cl)c1)n1c2c(c3cc(C(F)(F)F)ccc31)CN(C/C=C/c1ccc(Cl)c(F)c1)CC2 [Example 410, (E)-2-(3-(4-chloro-3-fluorophenyl)allyl)-N-((2-chloropyridin-4-yl)methyl)-8-(trifluoromethyl)-1,2,3,4-tetrahydro-5H-pyrido[4,3-b]indole-5-carboxamide]
minimal effective concentration (Haemonchus contortus L3): 1.8 µM
minimal effective concentration (D. immitis microfilariae): 10 µM

O=C(NCc1ccnc(F)c1)n1c2c(c3cc(Cl)ccc31)CN(C/C=C/c1ccc(Cl)cc1F)CC2 [Example 255, (E)-8-chloro-2-(3-(4-chloro-2-fluorophenyl)allyl)-N-((2-fluoropyridin-4-yl)methyl)-1,2,3,4-tetrahydro-5H-pyrido[4,3-b]indole-5-carboxamide]
minimal effective concentration (Haemonchus contortus L3): 0.3 µM
minimal effective concentration (D. immitis microfilariae): 18.2 µM

CS(=O)(=O)c1ccc2c(c1)c1c(n2C(=O)NCc2ccnc(Cl)c2)CCN(C/C=C/c2ccc(Cl)c(F)c2)C1 [Example 455, (E)-2-(3-(4-chloro-3-fluorophenyl)allyl)-N-((2-chloropyridin-4-yl)methyl)-8-(methylsulfonyl)-1,2,3,4-tetrahydro-5H-pyrido[4,3-b]indole-5-carboxamide]
minimal effective concentration (Haemonchus contortus L3): 0.7 µM
minimal effective concentration (D. immitis microfilariae): 5.7 µM

O=C(NCc1ccnc(Cl)c1)n1c2c(c3c(Cl)cccc31)CN(C/C=C/c1ccc(Cl)c(Cl)c1)CC2 [Example 216, (E)-9-chloro-N-((2-chloropyridin-4-yl)methyl)-2-(3-(3,4-dichlorophenyl)allyl)-1,2,3,4-tetrahydro-5H-pyrido[4,3-b]indole-5-carboxamide]
minimal effective concentration (Haemonchus contortus L3): 1 µM
minimal effective concentration (D. immitis microfilariae): 18.2 µM

N#Cc1ccc2c3c(n(C(=O)NCc4ccnc(C5CC5)c4)c2c1)CCN(C/C=C/c1ccc(Cl)c(F)c1)C3 [Example 515, (E)-2-(3-(4-chloro-3-fluorophenyl)allyl)-7-cyano-N-((2-cyclopropylpyridin-4-yl)methyl)-1,2,3,4-tetrahydro-5H-pyrido[4,3-b]indole-5-carboxamide]
minimal effective concentration (Haemonchus contortus L3): 1.8 µM
minimal effective concentration (D. immitis microfilariae): 13.5 µM

O=C(NCc1ccnc(F)c1)n1c2c(c3cc(Br)ccc31)CN(C/C=C/c1ccc(Cl)cc1)CC2 [Example 192, (E)-8-bromo-2-(3-(4-chlorophenyl)allyl)-N-((2-fluoropyridin-4-yl)methyl)-1,2,3,4-tetrahydro-5H-pyrido[4,3-b]indole-5-carboxamide]
minimal effective concentration (Haemonchus contortus L3): 0.7 µM
minimal effective concentration (D. immitis microfilariae): 11.5 µM

COc1cc2c3c(n(C(=O)NCc4ccnc(Cl)c4)c2cc1C(F)(F)F)CCN(C/C=C/c1ccc(Cl)cc1)C3 [Example 329, (E)-2-(3-(4-chlorophenyl)allyl)-N-((2-chloropyridin-4-yl)methyl)-8-methoxy-7-(trifluoromethyl)-1,2,3,4-tetrahydro-5H-pyrido[4,3-b]indole-5-carboxamide]
minimal effective concentration (Haemonchus contortus L3): 0.3 µM
minimal effective concentration (D. immitis microfilariae): 1.8 µM

N#Cc1ccc2c(c1)c1c(n2C(=O)NCc2ccnc(O)c2)CCN(C/C=C/c2ccc(Br)cc2F)C1 [Example 451, (E)-2-(3-(4-bromo-2-fluorophenyl)allyl)-8-cyano-N-((2-hydroxypyridin-4-yl)methyl)-1,2,3,4-tetrahydro-5H-pyrido[4,3-b]indole-5-carboxamide]
minimal effective concentration (Haemonchus contortus L3): > 100 µM
minimal effective concentration (D. immitis microfilariae): 3.3 µM

O=C(NCc1ccnc(Cl)c1)n1c2c(c3ccc(OC(F)(F)F)cc31)CN(Cc1ccc3cc(Br)ccc3c1)CC2 [Example 364, 2-((6-bromonaphthalen-2-yl)methyl)-N-((2-chloropyridin-4-yl)methyl)-7-(trifluoromethoxy)-1,2,3,4-tetrahydro-5H-pyrido[4,3-b]indole-5-carboxamide]
minimal effective concentration (Haemonchus contortus L3): > 100 µM
minimal effective concentration (D. immitis microfilariae): 1.8 µM

N#Cc1ccc2c(c1)c1c(n2C(=O)NCc2ccnc(F)c2)CCN(C/C=C/c2c(F)cc(Cl)cc2F)C1 [Example 103, (E)-2-(3-(4-chloro-2,6-difluorophenyl)allyl)-8-cyano-N-((2-fluoropyridin-4-yl)methyl)-1,2,3,4-tetrahydro-5H-pyrido[4,3-b]indole-5-carboxamide]
minimal effective concentration (Haemonchus contortus L3): 0.2 µM
minimal effective concentration (D. immitis microfilariae): 3.3 µM

O=C(NCc1ccnc(F)c1)n1c2c(c3cc(F)c(Cl)cc31)CN(C/C=C/c1ccc(F)cc1)CC2 [Example 319, (E)-7-chloro-8-fluoro-2-(3-(4-fluorophenyl)allyl)-N-((2-fluoropyridin-4-yl)methyl)-1,2,3,4-tetrahydro-5H-pyrido[4,3-b]indole-5-carboxamide]
minimal effective concentration (Haemonchus contortus L3): 10 µM
minimal effective concentration (D. immitis microfilariae): 10 µM

N#Cc1ccc2c(c1)c1c(n2C(=O)NCc2ccnc(Cl)c2)CCN(C/C=C/c2cc(F)cc(F)c2)C1 [Example 90, (E)-N-((2-chloropyridin-4-yl)methyl)-8-cyano-2-(3-(3,5-difluorophenyl)allyl)-1,2,3,4-tetrahydro-5H-pyrido[4,3-b]indole-5-carboxamide]
minimal effective concentration (Haemonchus contortus L3): 0.1 µM
minimal effective concentration (D. immitis microfilariae): 3.3 µM

O=C(NCc1ccnc(Cl)c1)n1c2c(c3c(C(F)(F)F)cccc31)CN(C/C=C/c1ccc(F)cc1)CC2 [Example 161, (E)-N-((2-chloropyridin-4-yl)methyl)-2-(3-(4-fluorophenyl)allyl)-9-(trifluoromethyl)-1,2,3,4-tetrahydro-5H-pyrido[4,3-b]indole-5-carboxamide]
minimal effective concentration (Haemonchus contortus L3): 2.1 µM
minimal effective concentration (D. immitis microfilariae): 10 µM

O=C(NCc1ccnc(Cl)c1)n1c2c(c3c(OC(F)(F)F)cccc31)CN(C/C=C/c1ccc(F)cc1)CC2 [Example 357, (E)-N-((2-chloropyridin-4-yl)methyl)-2-(3-(4-fluorophenyl)allyl)-9-(trifluoromethoxy)-1,2,3,4-tetrahydro-5H-pyrido[4,3-b]indole-5-carboxamide]
minimal effective concentration (Haemonchus contortus L3): 10 µM
minimal effective concentration (D. immitis microfilariae): 3.3 µM

O=C(NCc1ccnc(Cl)c1)n1c2c(c3c(C(F)(F)F)cccc31)CN(C/C=C/c1ccc(Cl)c(Cl)c1)CC2 [Example 159, (E)-N-((2-chloropyridin-4-yl)methyl)-2-(3-(3,4-dichlorophenyl)allyl)-9-(trifluoromethyl)-1,2,3,4-tetrahydro-5H-pyrido[4,3-b]indole-5-carboxamide]
minimal effective concentration (Haemonchus contortus L3): 18.2 µM
minimal effective concentration (D. immitis microfilariae): 10 µM

O=C(NCc1ccnc(F)c1)n1c2c(c3cc(OC(F)(F)F)ccc31)CN(C/C=C/c1ccc(F)c(Cl)c1)CC2 [Example 404, (E)-2-(3-(3-chloro-4-fluorophenyl)allyl)-N-((2-fluoropyridin-4-yl)methyl)-8-(trifluoromethoxy)-1,2,3,4-tetrahydro-5H-pyrido[4,3-b]indole-5-carboxamide]
minimal effective concentration (Haemonchus contortus L3): 1 µM
minimal effective concentration (D. immitis microfilariae): 18.2 µM

O=C(NCc1ccnc(Cl)c1)n1c2c(c3cc(Cl)c(Cl)cc31)CN(C/C=C/c1ccc(Cl)c(F)c1)CC2 [Example 274, (E)-7,8-dichloro-2-(3-(4-chloro-3-fluorophenyl)allyl)-N-((2-chloropyridin-4-yl)methyl)-1,2,3,4-tetrahydro-5H-pyrido[4,3-b]indole-5-carboxamide]
minimal effective concentration (Haemonchus contortus L3): 1.8 µM
minimal effective concentration (D. immitis microfilariae): 33 µM

From patent publication US10570129B2 (Zoetis Services LLC, priority 2015, dated 2020)
